{"source": "patent US20260096978A1", "about": "“A METHOD FOR PREVENTING, […]/OR TREATING PTGS2-INDUCED SKIN DISORDERS AND RELATED DYSFUNCTIONS” (Symrise AG, priority 2022, published 2026)", "key": {"PTGS2 [1]": {"test_system": "PTGS2", "assay": "PTGS2 gene expression (real-time RT-PCR) in ex vivo human skin biopsies exposed to solar simulated radiation", "assay_type": "cell-based", "details": "for PTGS2 gene expression, fold-change versus non-irradiated vehicle: SSR 250 J/cm^2 daily, day 2; for PTGS2 gene expression, % of irradiated vehicle: irradiated vehicle = 100; for PTGS2 gene expression, Δ versus irradiated vehicle: irradiated vehicle Δ = 0; for Effect on SSR-induced PTGS2 gene expression, in words: ex vivo human skin, SSR 250 J/cm^2", "protocol": "(§1) In order to evaluate the efficacy of L-Carnosine on protecting skin from Solar Simulated Radiation (SSR), gene expression and protein level of PTGS2 were analysed. -Ex vivo human skin biopsies were topically treated with L-Carnosine at different concentrations (0.2% and 2.2%), and daily exposed to 250 J/cm^2 of SSR. Gene expression and protein modulation were assessed respectively at day 2 and day3. The radiation dose was selected following the literature, and represent the approximative amount of solar light acquirable under natural conditions by sunbathing.\n(§2) Human skin samples were obtained from plastic surgery of healthy patients (aged between 25 and 60), and not intensive sun exposed. The informed consent was obtained from patients and retained by clinic. For the studies, twelve 8 mm diameter punch biopsies were used for each treatment. The skin samples were cultured in modified Williams' E medium at air-liquid interface and, maintained in incubator at the following conditions: 37° C., 5% CO2 and 95% humidity.\n(§3) For these studies L-Carnosine was dissolved in vehicle (DMSO/PBS 1:25) at the following concentration 0.2% and 2.2%. Treatments were applied topically and renewed daily as follows: skin biopsies were cleaned with sterile cotton buds and 4 μl of treatment were applied on the biopsy's epidermis. All treated and the control samples were covered with 6 mm diameter delivery membranes.\n(§4) Skin irradiation was performed daily, with Suntest XLS+(Ametek Inc., USA) equipped with the provided IR filter and a DAY LIGHT filter, to obtain an emission spectrum between 300 and 800 nm. Every day the skin samples were irradiated with a SSR dose of 250 J/cm^2. Control samples were sham-irradiated under the same conditions.\nHuman skin biopsies were collected in cryo-vial containing a commercial RNA stabilization solution (RNAlater, Merck KGaA, Germany) and stored at −80° C. Total RNA was extracted using a commercial kit (Rneasy mini-kit, Qiagen GmbH, Germany) according to the manufacturer's instructions. The expression level of selected genes was determined using Real-time RT-PCR method with custom designed gene array (TaqMan® Array 96-Well Fast Plates, Thermo Fisher Scientific Inc., USA).\nGene expression changes were determined in three donors."}, "PTGS2 [2]": {"test_system": "PTGS2", "assay": "PTGS2 protein level (IHC staining) in ex vivo human skin biopsies exposed to solar simulated radiation", "assay_type": "cell-based", "details": "SSR 250 J/cm^2; for PTGS2 protein level, mean as % of non-irradiated vehicle / PTGS2 protein level, Δ versus non-irradiated vehicle / PTGS2 protein level, mean score: day 3; for PTGS2 protein level, mean as % of non-irradiated vehicle: irradiated vehicle 198%; for PTGS2 protein level, Δ versus non-irradiated vehicle: irradiated vehicle Δ 98%; for PTGS2 protein level, mean score: non-irradiated vehicle 1.0302, irradiated vehicle 2.0439", "protocol": "as §1, §2, §3, §4\nSkin samples were collected (day 3), fixed in formalin and paraffin embedded. Skin sections were immuno-stained with PTGS2 antibody (Thermo Fisher Scientific Inc., USA). The images of the skin sections were acquired, and the analysis was performed through Image-J application (NIH, USA)."}}, "data": [{"smiles": "NCCC(=O)N[C@@H](Cc1cnc[nH]1)C(=O)O", "note": "[L-Carnosine]", "values": [{"measurement": "PTGS2 gene expression, fold-change versus non-irradiated vehicle", "setting": "PTGS2 [1]; Donor #1, L-Carnosine 0.2% topical, irradiated vehicle 5.3", "value": 4.2, "unit": "fold-change"}, {"measurement": "PTGS2 gene expression, % of irradiated vehicle", "setting": "PTGS2 [1]; Donor #1, L-Carnosine 0.2%", "value": 79, "unit": "%"}, {"measurement": "PTGS2 gene expression, Δ versus irradiated vehicle", "setting": "PTGS2 [1]; Donor #1, L-Carnosine 0.2%", "value": "−21"}, {"measurement": "PTGS2 gene expression, fold-change versus non-irradiated vehicle", "setting": "PTGS2 [1]; Donor #1, L-Carnosine 2.2% topical, irradiated vehicle 5.3", "value": 4.0, "unit": "fold-change"}, {"measurement": "PTGS2 gene expression, % of irradiated vehicle", "setting": "PTGS2 [1]; Donor #1, L-Carnosine 2.2%", "value": 76, "unit": "%"}, {"measurement": "PTGS2 gene expression, Δ versus irradiated vehicle", "setting": "PTGS2 [1]; Donor #1, L-Carnosine 2.2%", "value": "−24"}, {"measurement": "PTGS2 gene expression, fold-change versus non-irradiated vehicle", "setting": "PTGS2 [1]; Donor #2, L-Carnosine 0.2% topical, irradiated vehicle 13.9", "value": 11.3, "unit": "fold-change"}, {"measurement": "PTGS2 gene expression, % of irradiated vehicle", "setting": "PTGS2 [1]; Donor #2, L-Carnosine 0.2%", "value": 81, "unit": "%"}, {"measurement": "PTGS2 gene expression, Δ versus irradiated vehicle", "setting": "PTGS2 [1]; Donor #2, L-Carnosine 0.2%", "value": "−19"}, {"measurement": "PTGS2 gene expression, fold-change versus non-irradiated vehicle", "setting": "PTGS2 [1]; Donor #2, L-Carnosine 2.2% topical, irradiated vehicle 13.9", "value": 7.7, "unit": "fold-change"}, {"measurement": "PTGS2 gene expression, % of irradiated vehicle", "setting": "PTGS2 [1]; Donor #2, L-Carnosine 2.2%", "value": 55, "unit": "%"}, {"measurement": "PTGS2 gene expression, Δ versus irradiated vehicle", "setting": "PTGS2 [1]; Donor #2, L-Carnosine 2.2%", "value": "−45"}, {"measurement": "PTGS2 gene expression, fold-change versus non-irradiated vehicle", "setting": "PTGS2 [1]; Donor #3, L-Carnosine 0.2% topical, irradiated vehicle 2.0", "value": 1.4, "unit": "fold-change"}, {"measurement": "PTGS2 gene expression, % of irradiated vehicle", "setting": "PTGS2 [1]; Donor #3, L-Carnosine 0.2%", "value": 70, "unit": "%"}, {"measurement": "PTGS2 gene expression, Δ versus irradiated vehicle", "setting": "PTGS2 [1]; Donor #3, L-Carnosine 0.2%", "value": "−30"}, {"measurement": "PTGS2 gene expression, fold-change versus non-irradiated vehicle", "setting": "PTGS2 [1]; Donor #3, L-Carnosine 2.2% topical, irradiated vehicle 2.0", "value": 1.4, "unit": "fold-change"}, {"measurement": "PTGS2 gene expression, % of irradiated vehicle", "setting": "PTGS2 [1]; Donor #3, L-Carnosine 2.2%", "value": 72, "unit": "%"}, {"measurement": "PTGS2 gene expression, Δ versus irradiated vehicle", "setting": "PTGS2 [1]; Donor #3, L-Carnosine 2.2%", "value": "−28"}, {"measurement": "Effect on SSR-induced PTGS2 gene expression, in words", "setting": "PTGS2 [1]", "value": "efficiently reduce the SSR-induced induction of the PTGS2 gene"}, {"measurement": "Effect on SSR-induced PTGS2 gene expression, in words", "setting": "PTGS2 [1]; listed as L-carnosine", "value": "reduces the expression of PTGS2"}, {"measurement": "PTGS2 protein level, mean as % of non-irradiated vehicle", "setting": "PTGS2 [2]; L-Carnosine 0.2%", "value": 193, "unit": "%"}, {"measurement": "PTGS2 protein level, Δ versus non-irradiated vehicle", "setting": "PTGS2 [2]; L-Carnosine 0.2%", "value": 93, "unit": "%"}, {"measurement": "PTGS2 protein level, mean score", "setting": "PTGS2 [2]; L-Carnosine 0.2%", "value": 1.9913}, {"measurement": "PTGS2 protein level, mean as % of non-irradiated vehicle", "setting": "PTGS2 [2]; L-Carnosine 2.2%", "value": 146, "unit": "%"}, {"measurement": "PTGS2 protein level, Δ versus non-irradiated vehicle", "setting": "PTGS2 [2]; L-Carnosine 2.2%", "value": 46, "unit": "%"}, {"measurement": "PTGS2 protein level, mean score", "setting": "PTGS2 [2]; L-Carnosine 2.2%", "value": 1.5091}, {"measurement": "Effect on SSR-induced PTGS2 protein, in words", "setting": "PTGS2 [2]; ex vivo human skin", "value": "efficiently reduce the SSR-induced induction of the PTGS2 gene and the PTGS2-protein"}]}]}
